Data reported in ChEMBL document CHEMBL4118288, “Antiplasmodial activity of hydroxyethylamine analogs: Synthesis, biological activity and structure activity relationship of plasmepsin inhibitors” (Bioorg Med Chem, 2018).
pIC50, pKi: −log10 of the molar value. Values belong to the compound of their own block, whether it stands above or below them.

What was measured:
[1] = Therapeutic index, ratio of IC50 for human HepG2 cells to IC50 for chloroquine-susceptible blood forms of Plasmodium falciparum 3D7 infected in human erythrocytes; format: toxicity, cell-based; settings: read-out: Ratio IC50
HepG2 = experiment: Cytotoxicity against human HepG2 cells after 48 hrs by MTT assay; format: cell-based; settings: HepG2, 48 h
Plasmodium falciparum = experiment: Antiplasmodial activity against chloroquine-susceptible blood forms of Plasmodium falciparum 3D7 infected in human erythrocytes measured after 48 hrs by SYBR green1 staining based fluorescence assay; format: functional, organism-based; settings: 3D7, 48 h
[2] = Therapeutic index, ratio of IC50 for African green monkey Vero cells to IC50 for chloroquine-susceptible blood forms of Plasmodium falciparum 3D7 infected in human erythrocytes; format: toxicity, cell-based; settings: read-out: Ratio IC50
Vero = experiment: Cytotoxicity against African green monkey Vero cells after 48 hrs by MTT assay; format: cell-based; settings: Chlorocebus sabaeus
[3] = target: Plasmepsin II (Plasmodium falciparum) (UniProt P46925); experiment: (§1) Inhibition of Plasmodium falciparum Plm2 using synthetic substrate pretreated for 5 mins followed by substrate addition measured immediately by spectrophotometric method
[4] = target: Plasmepsin II (Plasmodium falciparum) (UniProt P46925); experiment: Inhibition of Plasmodium falciparum Plm2 at 10 uM using synthetic substrate pretreated for 5 mins followed by substrate addition measured immediately by spectrophotometric method relative to control
[5] = target: Plasmepsin 4 (Plasmodium falciparum) (UniProt Q17SB2); experiment: Inhibition of Plasmodium falciparum Plm4 at 10 uM using synthetic substrate pretreated for 5 mins followed by substrate addition measured immediately by spectrophotometric method relative to control
[6] = target: Plasmepsin 4 (Plasmodium falciparum) (UniProt Q17SB2); experiment: (§2) Inhibition of Plasmodium falciparum Plm4 using synthetic substrate pretreated for 5 mins followed by substrate addition measured immediately by spectrophotometric method
Plasmepsin 4 = Plasmepsin 4 (Plasmodium falciparum, UniProt Q17SB2); experiment: as §2
Plasmepsin II = Plasmepsin II (Plasmodium falciparum, UniProt P46925); experiment: as §1
Plasmepsin II, sequence (P46925 whole entry): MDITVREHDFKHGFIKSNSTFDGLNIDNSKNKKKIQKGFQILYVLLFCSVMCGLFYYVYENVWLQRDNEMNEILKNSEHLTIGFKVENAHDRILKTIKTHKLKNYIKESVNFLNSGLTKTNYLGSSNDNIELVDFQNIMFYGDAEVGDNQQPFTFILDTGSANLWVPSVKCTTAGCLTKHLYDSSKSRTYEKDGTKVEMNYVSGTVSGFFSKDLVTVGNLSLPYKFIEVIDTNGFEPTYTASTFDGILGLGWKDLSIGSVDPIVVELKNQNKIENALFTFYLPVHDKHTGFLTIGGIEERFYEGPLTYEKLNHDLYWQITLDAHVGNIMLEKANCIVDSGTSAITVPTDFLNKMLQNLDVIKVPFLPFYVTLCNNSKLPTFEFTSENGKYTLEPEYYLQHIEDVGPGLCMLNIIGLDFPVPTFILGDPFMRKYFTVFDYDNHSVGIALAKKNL

Plasmepsin 4, sequence (Q17SB2 whole entry): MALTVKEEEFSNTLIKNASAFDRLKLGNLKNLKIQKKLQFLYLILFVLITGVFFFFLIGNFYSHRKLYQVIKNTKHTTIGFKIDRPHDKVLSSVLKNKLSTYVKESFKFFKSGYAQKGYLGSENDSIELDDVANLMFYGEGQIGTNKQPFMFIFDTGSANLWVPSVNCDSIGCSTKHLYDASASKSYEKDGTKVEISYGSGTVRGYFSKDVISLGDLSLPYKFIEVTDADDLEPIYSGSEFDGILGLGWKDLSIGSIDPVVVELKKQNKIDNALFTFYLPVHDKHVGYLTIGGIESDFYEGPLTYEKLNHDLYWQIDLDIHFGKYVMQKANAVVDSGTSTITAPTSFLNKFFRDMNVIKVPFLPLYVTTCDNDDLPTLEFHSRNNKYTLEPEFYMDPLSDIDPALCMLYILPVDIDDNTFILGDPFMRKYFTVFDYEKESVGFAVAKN
Plasmepsin 4 (Plasmodium falciparum), sequence (Q17SB2 1-448): as the sequence (Q17SB2 whole entry) above
Plasmepsin II (Plasmodium falciparum), sequence (P46925 125-453 limits assumed): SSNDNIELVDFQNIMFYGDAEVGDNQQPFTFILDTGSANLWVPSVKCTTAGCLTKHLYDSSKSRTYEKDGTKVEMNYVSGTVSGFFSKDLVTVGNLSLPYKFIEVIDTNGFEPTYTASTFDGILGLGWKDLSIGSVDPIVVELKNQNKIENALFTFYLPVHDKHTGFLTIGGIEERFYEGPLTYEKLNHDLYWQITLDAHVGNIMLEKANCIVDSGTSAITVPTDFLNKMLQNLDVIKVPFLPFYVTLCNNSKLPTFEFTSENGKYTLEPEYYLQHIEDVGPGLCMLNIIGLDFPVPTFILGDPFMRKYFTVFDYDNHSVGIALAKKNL

SMILES: CC[C@H](C)[C@H](NC(=O)OC(C)(C)C)C(=O)N[C@@H](Cc1ccccc1)[C@H](O)CN1CCN(C[C@@H](O)[C@H](Cc2ccccc2)NC(=O)[C@@H](NC(=O)OC(C)(C)C)[C@@H](C)CC)CC1
pIC50 (Plasmodium falciparum): 5.74

SMILES: C[C@@H]1CC[C@H]2[C@@H](C)C(=O)O[C@@H]3O[C@@]4(C)CC[C@@H]1[C@]32OO4 [ARTEMISININ]
pIC50 (Plasmodium falciparum): 7.13

SMILES: CC[C@H](C)[C@@H](C(=O)N[C@@H](Cc1ccccc1)[C@H](O)CN1CCN(C[C@@H](O)[C@H](Cc2ccccc2)NC(=O)[C@H]([C@@H](C)CC)N2C(=O)c3ccc(C)cc3C2=O)CC1)N1C(=O)c2ccc(C)cc2C1=O
inhibition [3]: Dose-dependent effect
inhibition [4]: > 50%
inhibition [5]: > 50%
pIC50 (Plasmodium falciparum): 5.51
inhibition [6]: Dose-dependent effect
pKi (Plasmepsin 4): 6.08

SMILES: Cc1ccc2c(c1)C(=O)N(CC(=O)N[C@@H](Cc1ccccc1)[C@H](O)CN1CCN(C[C@H](O)[C@@H](Cc3ccccc3)NC(=O)CN3C(=O)c4ccc(C)cc4C3=O)CC1)C2=O
inhibition [3]: Dose-dependent effect
inhibition [4]: > 50%
inhibition [5]: > 50%
pIC50 (Plasmodium falciparum): 4.97
inhibition [6]: Dose-dependent effect
pKi (Plasmepsin 4): 5.48

SMILES: CC(C)[C@H](N)C(=O)NC(Cc1ccccc1)C(O)CN1CCN(C[C@@H](O)[C@H](Cc2ccccc2)NC(=O)[C@@H](N)C(C)C)CC1 (single isomer, unassigned)
pIC50 (Plasmodium falciparum): 5.57

SMILES: Cc1ccc2c(c1)C(=O)N([C@@H](CC(C)C)C(=O)NC(Cc1ccccc1)C(O)CN1CCN(C[C@@H](O)[C@H](Cc3ccccc3)NC(=O)[C@H](CC(C)C)N3C(=O)c4ccc(C)cc4C3=O)CC1)C2=O (single isomer, unassigned)
inhibition [3]: Dose-dependent effect
pKi (Plasmepsin II): 5.72
selectivity ratio [1]: > 10
pIC50 (HepG2): 4.57
inhibition [4]: > 50%
inhibition [5]: > 50%
pIC50 (Plasmodium falciparum): 5.64
selectivity ratio [2]: > 10
inhibition [6]: Dose-dependent effect
pKi (Plasmepsin 4): 5.70
pIC50 (Vero): 4.22

More lines, in order of rising pIC50 (Plasmodium falciparum), values ahead:

pIC50 (Plasmodium falciparum): 4.69
SMILES: O=C(CN1C(=O)c2ccccc2C1=O)NC(Cc1ccccc1)C(O)CN1CCN(C[C@@H](O)[C@H](Cc2ccccc2)NC(=O)CN2C(=O)c3ccccc3C2=O)CC1 (single isomer, unassigned)

pIC50 (Plasmodium falciparum): 4.72
SMILES: Cc1ccc2c(c1)C(=O)N([C@@H](C)C(=O)NC(Cc1ccccc1)C(O)CN1CCN(C[C@@H](O)[C@H](Cc3ccccc3)NC(=O)[C@H](C)N3C(=O)c4ccc(C)cc4C3=O)CC1)C2=O (single isomer, unassigned)

pIC50 (Plasmodium falciparum): 5.07
SMILES: CC(C)(C)OC(=O)NCC(=O)NC(Cc1ccccc1)C(O)CN1CCN(C[C@@H](O)[C@H](Cc2ccccc2)NC(=O)CNC(=O)OC(C)(C)C)CC1 (single isomer, unassigned)

pIC50 (Plasmodium falciparum): 5.08
SMILES: C[C@H](NC(=O)OC(C)(C)C)C(=O)N[C@@H](Cc1ccccc1)[C@H](O)CN1CCN(C[C@H](O)[C@@H](Cc2ccccc2)NC(=O)[C@H](C)NC(=O)OC(C)(C)C)CC1

pIC50 (Plasmodium falciparum): 5.12
SMILES: C[C@@H](C(=O)NC(Cc1ccccc1)C(O)CN1CCN(C[C@@H](O)[C@H](Cc2ccccc2)NC(=O)[C@H](C)N2C(=O)c3ccccc3C2=O)CC1)N1C(=O)c2ccccc2C1=O (single isomer, unassigned)

pIC50 (Plasmodium falciparum): 5.16
SMILES: C[C@H](N)C(=O)NC(Cc1ccccc1)C(O)CN1CCN(C[C@@H](O)[C@H](Cc2ccccc2)NC(=O)[C@H](C)N)CC1 (single isomer, unassigned)

pIC50 (Plasmodium falciparum): 5.36
SMILES: CC(C)[C@H](NC(=O)OC(C)(C)C)C(=O)N[C@@H](Cc1ccccc1)[C@H](O)CN1CCN(C[C@H](O)[C@@H](Cc2ccccc2)NC(=O)[C@@H](NC(=O)OC(C)(C)C)C(C)C)CC1

pIC50 (Plasmodium falciparum): 5.46
SMILES: N[C@@H](Cc1ccccc1)[C@H](O)CN1CCN(C[C@@H](O)[C@@H](N)Cc2ccccc2)CC1

pIC50 (Plasmodium falciparum): 5.65
SMILES: Cc1ccc2c(c1)C(=O)N([C@H](C(=O)NC(Cc1ccccc1)C(O)CN1CCN(C[C@@H](O)[C@H](Cc3ccccc3)NC(=O)[C@H](C(C)C)N3C(=O)c4ccc(C)cc4C3=O)CC1)C(C)C)C2=O (single isomer, unassigned)

pIC50 (Plasmodium falciparum): 5.87
SMILES: CC[C@H](C)[C@H](N)C(=O)N[C@@H](Cc1ccccc1)[C@H](O)CN1CCN(C[C@@H](O)[C@H](Cc2ccccc2)NC(=O)[C@@H](N)[C@@H](C)CC)CC1
selectivity ratio [1]: > 10
pIC50 (HepG2): 3.90
selectivity ratio [2]: > 10
pIC50 (Vero): < 3.81
